Data published in patent US5604203A, “Analogs of peptide YY and uses thereof” (University of Cincinnati, priority 1994, dated 1997).
Like-named read-outs stand apart in the source and are kept apart here. Blank lines part the entries; values can stand above or below the molecule they belong to. Square brackets hold non-standard residues; d marks the D form. Ends that are not written are not given here. Peptide text beside a SMILES is read from it. Bip = N[C@@H](Cc1ccc(-c2ccccc2)cc1)C(=O)O; 2Nal = N[C@@H](Cc1ccc2ccccc2c1)C(=O)O; Tic = O=C(O)[C@@H]1Cc2ccccc2CN1; 2Thi = N[C@@H](Cc1cccs1)C(=O)O

What was measured:
[1] = target: T1, intestinal PYY-preferring receptors (Rattus norvegicus, UniProt Q9ERC0)
T1 sequence (Q9ERC0 1-381): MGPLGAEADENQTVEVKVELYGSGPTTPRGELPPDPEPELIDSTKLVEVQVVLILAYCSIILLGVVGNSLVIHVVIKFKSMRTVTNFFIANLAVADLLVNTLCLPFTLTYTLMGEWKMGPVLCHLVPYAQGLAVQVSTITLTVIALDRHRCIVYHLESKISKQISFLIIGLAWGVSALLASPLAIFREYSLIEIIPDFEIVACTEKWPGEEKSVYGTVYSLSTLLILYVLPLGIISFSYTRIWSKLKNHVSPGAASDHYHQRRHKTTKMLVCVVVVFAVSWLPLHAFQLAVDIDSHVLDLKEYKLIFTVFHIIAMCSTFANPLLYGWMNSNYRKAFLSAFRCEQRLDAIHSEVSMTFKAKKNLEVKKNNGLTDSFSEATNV
Experimental: Bound and free peptides were separated by centrifugation at 20,000×g for 10 min.
All points in the binding experiments are the mean of at least three experiments performed in duplicate.

[2] = target: PYY receptor of rat jejunal epithelial plasma membranes (rat); experiment: competition with 0.05 nM 125I-PYY on rat jejunal epithelial plasma membranes
[3] = target: PYY receptor of rat jejunal epithelial plasma membranes (rat); experiment: competition with 125I-PYY on rat jejunal membranes
[4] = target: PYY receptor of rat jejunal epithelial plasma membranes (rat); experiment: competitive binding, done as described above (125I-PYY, rat jejunal membranes)
[5] = IC50 (nM), Table 2, receptor binding data
[6] = IC50 (nM), Table 3, binding activity
[7] = BINDING IC50 (nM), Table 1, 125I-PYY, rat jejunal membranes, mean of three separate experiments

Molecule: CC(=O)N[C@@H](C)C(=O)N[C@@H](CO)C(=O)N[C@@H](CC(C)C)C(=O)N[C@@H](CCCN=C(N)N)C(=O)N[C@@H](Cc1c[nH]cn1)C(=O)N[C@@H](Cc1ccc(-c2ccccc2)cc1)C(=O)N[C@@H](CC(C)C)C(=O)N[C@@H](CC(N)=O)C(=O)N[C@@H](CC(C)C)C(=O)N[C@H](C(=O)N[C@H](C(=O)N[C@@H](CCCN=C(N)N)C(=O)N[C@@H](CCC(N)=O)C(=O)N[C@@H](CCCN=C(N)N)C(=O)N[C@@H](Cc1ccc(O)cc1)C(N)=O)[C@@H](C)O)C(C)C [Peptide 906, N-α-Ac-A S L R H [Bip] L N L V T R Q R Y--NH2] (HELM PEPTIDE1{[ac].A.S.L.R.H.[O=C([C@H](Cc1ccc(-c2ccccc2)cc1)N[*:1])[*:2]].L.N.L.V.T.R.Q.R.Y.[am]}$$$$V2.0)
IC50 [1, 5]: 4.46 nM

Molecule: NPY (neuropeptide Y) (ligand)
IC50 [2]: 2 nM

Molecule: CC(=O)N[C@@H](C)C(=O)N[C@@H](CO)C(=O)N[C@@H](CC(C)C)C(=O)N[C@@H](CCCNC(=N)N)C(=O)N[C@@H](Cc1cnc[nH]1)C(=O)N[C@@H](Cc1ccc(O)cc1)C(=O)N[C@@H](CC(C)C)C(=O)N[C@@H](CC(N)=O)C(=O)N[C@@H](CC(C)C)C(=O)N[C@H](C(=O)N[C@H](C(=O)N[C@@H](CCCNC(=N)N)C(=O)N[C@@H](CCC(N)=O)C(=O)N[C@@H](CCCNC(=N)N)C(=O)N[C@@H](Cc1ccc(O)cc1)C(N)=O)[C@@H](C)O)C(C)C [N-α-Ac-PYY(22-36), N-α-Ac-A S L R H Y L N L V T R Q R Y--NH2]
IC50 [1, 7]: 1.12 nM
IC50 [1, 5]: 0.08 nM

Molecule: PYY(22-36) (peptide)
IC50 [2]: 4 nM

Molecule: CC(=O)N[C@@H](C)C(=O)N[C@@H](CO)C(=O)N[C@@H](CC(C)C)C(=O)N[C@@H](CCCNC(=N)N)C(=O)N[C@@H](Cc1c[nH]cn1)C(=O)N[C@@H](Cc1ccc2ccccc2c1)C(=O)N[C@@H](CC(C)C)C(=O)N[C@@H](CC(N)=O)C(=O)N[C@@H](CC(C)C)C(=O)N[C@H](C(=O)N[C@H](C(=O)N[C@@H](CCCNC(=N)N)C(=O)N[C@@H](CCC(N)=O)C(=O)N[C@@H](CCCNC(=N)N)C(=O)N[C@@H](Cc1ccc(O)cc1)C(N)=O)[C@@H](C)O)C(C)C [Peptide 911, N-α-Ac-A S L R H [NaL] L N L V T R Q R Y--NH2] (HELM PEPTIDE1{[ac].A.S.L.R.H.[O=C([C@H](Cc1ccc2ccccc2c1)N[*:1])[*:2]].L.N.L.V.T.R.Q.R.Y.[am]}$$$$V2.0)
IC50 [1]: 0.39 nM

Molecule: Ac-FSLRHFLNLVTRQRY-NH2 [Peptide 908, N-α-Ac-[Phe]S L R N [Phe] L N L V T R Q R Y--NH2]
IC50 [1, 6]: 11.2 nM

Molecule: CC(=O)N[C@@H](C)C(=O)N[C@@H](CO)C(=O)N[C@@H](CC(C)C)C(=O)N[C@@H](CCCNC(=N)N)C(=O)N[C@@H](Cc1c[nH]cn1)C(=O)N[C@@H](Cc1csc2ccccc12)C(=O)N[C@@H](CC(C)C)C(=O)N[C@@H](CC(N)=O)C(=O)N[C@@H](CC(C)C)C(=O)N[C@H](C(=O)N[C@H](C(=O)N[C@@H](CCCNC(=N)N)C(=O)N[C@@H](CCC(N)=O)C(=O)N[C@@H](CCCNC(=N)N)C(=O)N[C@@H](Cc1ccc(O)cc1)C(N)=O)[C@@H](C)O)C(C)C [Peptide 905, N-α-Ac-A S L R H [Bth] L N L V T R Q R Y--NH2] (HELM PEPTIDE1{[ac].A.S.L.R.H.[O=C([C@H](Cc1csc2ccccc12)N[*:1])[*:2]].L.N.L.V.T.R.Q.R.Y.[am]}$$$$V2.0)
IC50 [1, 5]: 0.22 nM

Molecule: Ac-ASLRHFLNLVTRQRY-NH2 [N-α-Ac-[Phe^27]PYY(22-36)]
IC50 [1, 7]: 0.8 nM

Molecule: CC(=O)N[C@@H](C)C(=O)N[C@@H](CO)C(=O)N[C@@H](CC(C)C)C(=O)N[C@@H](CCCNC(=N)N)C(=O)N[C@@H](Cc1c[nH]cn1)C(=O)N[C@@H](Cc1ccc(Cl)cc1)C(=O)N[C@@H](CC(C)C)C(=O)N[C@@H](CC(N)=O)C(=O)N[C@@H](CC(C)C)C(=O)N[C@H](C(=O)N[C@H](C(=O)N[C@@H](CCCNC(=N)N)C(=O)N[C@@H](CCC(N)=O)C(=O)N[C@@H](CCCNC(=N)N)C(=O)N[C@@H](Cc1ccc(O)cc1)C(N)=O)[C@@H](C)O)C(C)C [Peptide 904, N-α-Ac-A S L R H [Pcp] L N L V T R Q R Y--NH2] (HELM PEPTIDE1{[ac].A.S.L.R.H.[O=C([C@H](Cc1ccc(Cl)cc1)N[*:1])[*:2]].L.N.L.V.T.R.Q.R.Y.[am]}$$$$V2.0)
IC50 [1, 6]: 1.58 nM

Molecule: Ac-ASLRH[2Nal]LNLVTRQRY-NH2 [N-α-Ac-[Nal^27 ]PYY(22-36)]
IC50 [3]: 0.39 nM

Molecule: ASLRHYLNLVARQRY-NH2 [[Ala^32 ]PYY(22-36)]
IC50 [2]: 71 nM

B1: N-α-Ac-[Bth^27 ]PYY(22-36) (peptide)
peptide: ASLRHXLNLVTRQRY
HELM: PEPTIDE1{[ac].A.S.L.R.H.[O=C([C@H](Cc1csc2ccccc12)N[*:1])[*:2]].L.N.L.V.T.R.Q.R.Y.[am]}$$$$V2.0
SMILES: CC(=O)N[C@@H](C)C(=O)N[C@@H](CO)C(=O)N[C@@H](CC(C)C)C(=O)N[C@@H](CCCNC(=N)N)C(=O)N[C@@H](Cc1c[nH]cn1)C(=O)N[C@@H](Cc1csc2ccccc12)C(=O)N[C@@H](CC(C)C)C(=O)N[C@@H](CC(N)=O)C(=O)N[C@@H](CC(C)C)C(=O)N[C@H](C(=O)N[C@H](C(=O)N[C@@H](CCCNC(=N)N)C(=O)N[C@@H](CCC(N)=O)C(=O)N[C@@H](CCCNC(=N)N)C(=O)N[C@@H](Cc1ccc(O)cc1)C(N)=O)[C@@H](C)O)C(C)C
IC50 [3]: 0.22 nM

Molecule: Ac-ASLRH[Bip]LNLVTRQRY-NH2 [N-α-Ac-[Bip^27 ]PYY(22-36)]
IC50 [3]: 4.46 nM

Molecule: AALRHYLNLVARQRY-NH2 [[Ala^23,32 ]PYY(22-36)]
IC50 [2]: > 10000 nM

Molecule: ASLRHYENLVTRQRY-NH2 [[Glu^28 ]PYY(22-36)]
IC50 [2]: 199 nM

The next lines start with the values.

IC50 [1, 5]: 0.1 nM
Molecule: Ac-ASLRHWLNLVTRQRY-NH2 [Peptide 915, N-α-Ac-A S L R H [Trp] L N L V T R Q R Y--NH2]

IC50 [3]: 0.15 nM
Molecule: N-α-Ac-[Phe^27 ]PYY(25-36) (peptide)

IC50 [1, 6]: 4.46 nM
Molecule: CC(=O)N[C@@H](C)C(=O)N[C@@H](CO)C(=O)N[C@@H](CC(C)C)C(=O)N[C@@H](CCCNC(=N)N)C(=O)N[C@@H](Cc1cnc[nH]1)C(=O)N[C@@H](Cc1ccccc1)C(=O)N[C@@H](CC(C)C)C(=O)N[C@@H](CC(N)=O)C(=O)N[C@@H](CC(C)C)C(=O)N[C@H](C(=O)N[C@H](C(=O)N[C@@H](CCCNC(=N)N)C(=O)N[C@@H](CCC(N)=O)C(=O)N[C@@H](CCCNC(=N)N)C(=O)N[C@@H](Cc1cccs1)C(N)=O)[C@@H](C)O)C(C)C [Peptide 917, M-α-Ac-A S L R H (Phel L N L V T R Q R [Thi]-NH2] (HELM PEPTIDE1{[ac].A.S.L.R.H.F.L.N.L.V.T.R.Q.R.[O=C([C@H](Cc1cccs1)N[*:1])[*:2]].[am]}$$$$V2.0)

IC50 [1, 7]: 71 nM
Molecule: ASLRHYLNLVARQRY-NH2 [[Ala^32]PYY(22-36), A S L R H Y L N L V [Ala] R Q R Y--NH2]

IC50 [1, 7]: > 10000 nM
Molecule: AALRHYLNLVARQRY-NH2 [[Ala^23,32]PYY(22-36), A [Ala] L R H Y L N L V [Ala] R Q R Y-NN2]

IC50 [1, 5]: 0.095 nM
Molecule: CC(=O)N[C@@H](C)C(=O)N[C@@H](CO)C(=O)N[C@@H](CC(C)C)C(=O)N[C@@H](CCCNC(=N)N)C(=O)N[C@@H](Cc1c[nH]cn1)C(=O)N[C@@H](Cc1cccs1)C(=O)N[C@@H](CC(C)C)C(=O)N[C@@H](CC(N)=O)C(=O)N[C@@H](CC(C)C)C(=O)N[C@H](C(=O)N[C@H](C(=O)N[C@@H](CCCNC(=N)N)C(=O)N[C@@H](CCC(N)=O)C(=O)N[C@@H](CCCNC(=N)N)C(=O)N[C@@H](Cc1ccc(O)cc1)C(N)=O)[C@@H](C)O)C(C)C [Peptide 916] (HELM PEPTIDE1{[ac].A.S.L.R.H.[O=C([C@H](Cc1cccs1)N[*:1])[*:2]].L.N.L.V.T.R.Q.R.Y.[am]}$$$$V2.0)

IC50 [2]: 4 nM
Molecule: [im-DNP-His^26 ]PYY (peptide)

IC50 [1, 7]: 199 nM
Molecule: ASLRHYENLVTRQRY-NH2 [[Glu^28]PYY(22-36), A S L R H Y [Glu] N L V T R Q R Y--NH2]

IC50 [1, 6]: 0.1 nM
Molecule: Ac-YSLRHFLNLVTRQRY-NH2 [Peptide 910, N-α-Ac-[Tyr] S L R H [Phe] L N L V T R Q R Y--NH2]

IC50 [3]: 4.5 nM
Molecule: Ac-ASLRH[Tic]LNLVTRQRY-NH2 [N-α-Ac-[Tic^27 ]PYY(22-36)]

IC50 [3]: 0.095 nM
Molecule: Ac-ASLRH[2Thi]LNLVTRQRY-NH2 [N-α-Ac-[Thi^27 ]PYY(22-36)]

IC50 [4]: 4.46 nM
B2: N-α-Ac-[Phe^27,Thi^36 ]PYY(22-36) (peptide)
peptide: ASLRHFLNLVTRQRX
HELM: PEPTIDE1{[ac].A.S.L.R.H.F.L.N.L.V.T.R.Q.R.[O=C([C@H](Cc1cccs1)N[*:1])[*:2]].[am]}$$$$V2.0
SMILES: CC(=O)N[C@@H](C)C(=O)N[C@@H](CO)C(=O)N[C@@H](CC(C)C)C(=O)N[C@@H](CCCNC(=N)N)C(=O)N[C@@H](Cc1c[nH]cn1)C(=O)N[C@@H](Cc1ccccc1)C(=O)N[C@@H](CC(C)C)C(=O)N[C@@H](CC(N)=O)C(=O)N[C@@H](CC(C)C)C(=O)N[C@H](C(=O)N[C@H](C(=O)N[C@@H](CCCNC(=N)N)C(=O)N[C@@H](CCC(N)=O)C(=O)N[C@@H](CCCNC(=N)N)C(=O)N[C@@H](Cc1cccs1)C(N)=O)[C@@H](C)O)C(C)C

IC50 [3]: 0.1 nM
Molecule: Ac-ASLRHWLNLVTRQRY-NH2 [N-α-Ac-[Trp^27 ]PYY(22-36)]
